Entries after “also recorded” stand apart in the source; their conditions may differ.
Experiments:
[1] = system: fibrosis-related gene expression in explanted human lung tissue from patients with idiopathic pulmonary fibrosis; assay: nCounter Fibrosis Panel gene expression in precision cut lung slices from IPF explants; type: cell-based; conditions: IPF PCLS, 7 days, vs DMSO
Description: Fibrosis-related gene expression in explanted human lung tissue from patients with idiopathic pulmonary fibrosis was examined in order to determine what impact combining Compound 5 treatment with standard-of-care drugs nintedanib or pirfenidone, has on the expression of such genes.
Samples used for this analysis are a subset (n = 4 of 7) of the lungs previously reported on in Decaris et al., Respir Res (2021) 22:265 (FIGS. 6 A and B). Briefly, tissue samples from patients with IPF were acquired at the time of lung transplantation. Precision cut lung slices were generated from the explants and cultured for 7 days in the presence of inhibitors (Compound 5, nintedanib, pirfenidone) at clinically relevant concentrations or vehicle (DMSO). Treated slices were lysed in mRNA-compatible buffer for gene expression analysis. For this study, the lysate from n = 6 slices per treatment per lung were pooled for analysis using the nCounter Fibrosis Panel (Nanostring) on the nCounter Max analyzer (Nanostring). This commercially available panel of 770 genes includes genes related to initial tissue damage response, chronic inflammation, proliferation of pro-fibrotic cells, and tissue modification leading to fibrotic disease. Technical quality control and normalization of raw Nanostring mRNA count data was performed using an R framework developed by Bhattacharya et al. (Bhattacharya A. et al., Brief Bioinform. 2021 May 20;22(3):bbaa163). The R packages limma (see URL www.bioconductor.org/packages/release/bioc/html/limma.html) and voom (Law, C.W. et al., Genome Biol. 2014 Feb 3;15(2):R29) were used to detect differentially expressed genes. Benjamini-Hochberg False Discovery Rate (FDR = 5%) was used to adjust p-values for multiple comparisons.

pSmad2/Smad2 = assay: Alveolar pSmad2/Smad2 in BAL, prior study (80 mg and 160 mg QD); type: in vivo; conditions: p<0.0001
Description: FIG. 12 through FIG. 36 illustrate various results from the clinical trial. […] BAL - bronchoalveolar lavage; pSmad2/Smad2 - ratio of phosphorylated Smad2 to total Smad2; QD - once daily.

SMAD3 phosphorylation = assay: pSMAD3/SMAD3 in lung tissue and BALF of healthy mice; type: in vivo, mouse; conditions: 4 days of treatment, dose dependent
[2] = system: Type I Collagen gene Col1a1 expression; assay: Precision cut lung slices of mice under acute bleomycin exposure; type: cell-based, mouse; conditions: slices cultured 3 days; integrin inhibitors at IC50, pan-αv and ALK5 inhibitors at 10x IC50
Procedure: Mice (C57BL/6) were administered 3 U/kg of bleomycin (Teva Pharmaceuticals; North Wales, PA) on day 0 via oropharyngeal aspiration while under anesthesia. On day 14, precision cut lung slices were obtained. Following euthanization, 2% low gelling temp agarose was injected into the mouse lungs via the trachea. […] The lobes were then subjected to precision slicing to obtain samples for culture using a microtome (Compresstome VF-300-0Z, Precisionary; Greenville, NC). Individual slices were distributed in a multiwell culture plate and cultured for 3 days under control (DMSO) and test compound conditions.

[3] = system: patients with idiopathic pulmonary fibrosis (IPF); assay: Phase 2a trial in IPF: safety and tolerability
Description: Approximately 80% of the enrolled patients were on standard of care and were equally distributed between nintedanib and pirfenidone.

For COCCN(CCCCc1ccc2c(n1)NCCC2)CC[C@H](Nc1ncnc2ccccc12)C(=O)O [Compound 5, (S)-4-((2-methoxyethyl)(4-(5,6,7,8-tetrahydro-1,8-naphthyridin-2-yl)butyl)amino)-2-(quinazolin-4-ylamino)butanoic acid], the “% Reduction of APOC2 expression” value [1] was -1.20%, the “% Reduction of CDH2 expression” value [1] was 23.87% and the “% Reduction of COL1A1 expression” value [1] was 38.78%. The “% Reduction of COL4A2 expression” value [1] was 17.74%, the “% Reduction of COL5A3 expression” value [1] was 30.59% and the “% Reduction of FAP expression” value [1] was 37.30%. For the same compound, the “% Reduction of FCGR3A/B expression” value [1] was 28.54%, the “% Reduction of ITGAS expression” value [1] was 26.20% and the “% Reduction of ITGB3 expression” value [1] was -2.48%. The “% Reduction of LOX expression” value [1] was 39.38%, the “% Reduction of LOXL2 expression” value [1] was 15.32% and the “% Reduction of NID1 expression” value [1] was 19.25%. For the same compound, the “% Reduction of PDGFRB expression” value [1] was 37.29%, the “% Reduction of POSTN expression” value [1] was 48.61% and the “% Reduction of SERPINE1 expression” value [1] was 35.77%. The “% Reduction of SERPINH1 expression” value [1] was 22.68%, the “% Reduction of SPP1 expression” value [1] was -15.73% and the “% Reduction of TGFB1 expression” value [1] was 1.68%. For the same compound, the “% Reduction of THBS2 expression” value [1] was 31.47%, the “logFC of ALDH7A1 expression” value [1] was 0.57 and the “logFC of APOA2 expression” value [1] was 0.6135. For the same compound, the “logFC of CCL13 expression” value [1] was 0.9445, the “logFC of CD19 expression” value [1] was 0.5301 and the “logFC of CIITA expression” value [1] was 0.5895. For the same compound, the “logFC of COL1A2 expression” value [1] was -0.8062, the “logFC of COL3A1 expression” value [1] was -0.7449 and the “logFC of COL5A1 expression” value [1] was -0.9282. The “logFC of COL6A3 expression” value [1] was -0.8313, the “logFC of COL10A1 expression” value [1] was -2.782 and the “logFC of CXCL2 expression” value [1] was 0.7069. For the same compound, the “logFC of CXCR4 expression” value [1] was -0.7822, the “logFC of FAP expression” value [1] was -0.6735 and the “logFC of FN1 expression” value [1] was -0.662. The “logFC of FZD5 expression” value [1] was 0.4466, the “logFC of GPC4 expression” value [1] was 0.486 and the “logFC of GREM1 expression” value [1] was -0.8269. For the same compound, the “logFC of IFI6 expression” value [1] was 0.9391, the “logFC of IFI35 expression” value [1] was 0.4412 and the “logFC of LOX expression” value [1] was -0.722. The “logFC of LOXL1 expression” value [1] was -0.6279, the “logFC of LTA expression” value [1] was 0.4994 and the “logFC of MARCO expression” value [1] was -0.9183. For the same compound, the “logFC of MET expression” value [1] was 0.6707, the “logFC of MMP8 expression” value [1] was -0.8754 and the “logFC of MMP11 expression” value [1] was -0.6749. For the same compound, the “logFC of NOS1 expression” value [1] was 0.6684, the “logFC of OAS1 expression” value [1] was 0.6104 and the “logFC of PDGFRB expression” value [1] was -0.6732. The “logFC of PECAM1 expression” value [1] was -0.8251, the “logFC of PLPP4 expression” value [1] was -0.6364 and the “logFC of POSTN expression” value [1] was -0.9604. The “logFC of PTGER4 expression” value [1] was 0.439, the “logFC of SERPINE1 expression” value [1] was -0.6387 and the “logFC of SMAD3 expression” value [1] was 0.4528. For the same compound, the “logFC of TIMP1 expression” value [1] was -0.6101, the “logFC of TNF expression” value [1] was 0.4803 and the “logFC of TTN expression” value [1] was 0.5832. For the same compound, the “logFC of WWC1 expression” value [1] was 0.5885, the “logFC of XAF1 expression” value [1] was 0.4529 and the “percent change of alveolar pSmad2/Smad2 from baseline at 24 hours vs placebo” value (pSmad2/Smad2) was “statistically significant”. The “SMAD3 phosphorylation (pSMAD3/SMAD3) in cells isolated from BALF, % of the untreated levels” value (SMAD3 phosphorylation) was “approximately 50%”, the “SMAD3 phosphorylation (pSMAD3/SMAD3) in lung tissue, % of the untreated levels” value (SMAD3 phosphorylation) was “approximately 50%” and the “Type I Collagen gene Col1a1 expression vs DMSO control” value [2] was “decreased Type I Collagen gene Col1a1 expression substantially”. For the same compound, the “discontinuations due to adverse events” value ([3]; 12 weeks) was “no discontinuations due to adverse events”, the “severity of most treatment emergent adverse events (TEAE)” value ([3]; 12 weeks) was “mild or moderate” and the “treatment related deaths or drug related serious adverse events (SAE)” value ([3]; 12 weeks) was “No treatment related deaths or drug related serious adverse events; also recorded: No treatment related SAEs or deaths”. For the same compound, the “patients completing 12 weeks of treatment (65 of 67)” value ([3]; 40, 80, 160 mg once daily) was 97%, the tolerability ([3]; 40, 80, 160 mg once daily, 12 weeks) was “safe and well tolerated” and the serious adverse events ([3]; Compound 5 alone) was “did not result in serious adverse events”.

— patent publication US20230293519A1, “INTEGRIN INHIBITORS AND USES THEREOF IN COMBINATION WITH OTHER AGENTS” (Pliant Therapeutics, Inc., priority 2021, published 2023)
